Assay results from paper PMC12675575, “A BRET biosensor for measuring uncompetitive engagement of PRMT5 complexes in cells” (Nature Communications, 2025).
Several values for one entry are separate records, joined by “and”; a condition that tells them apart may be missing. Equal entries are not always repeated.

Experiments:
PRMT5-NL = molecular target: T1, PRMT5-NL (Homo sapiens, UniProt O14744); test: CBH-002 affinity curve, HEK293, PRMT5-NL fusion with empty carrier DNA (no WDR77); assay type: cell-based; parameters: unit not given here; conditions: Figure S2B NL-PRMT5, log([CBH-002])
T1 construct: host or cells: HEK293
Method: HEK293 cells (ATCC) were cultured in DMEM (Thermo Fisher) + 10% (v/v) FBS (Seredigm), and HCT116 cells (Horizon Discovery, #PAR-034 and #R02-033) were cultured in McCoy’s 5A (Thermo Fisher) + 10% FBS, with incubation in a humidified, 37 °C/5% CO2 incubator. Cells were split 1–3 days prior to performing experiments and used at roughly 80% confluency. […] Cells were transfected according to the manufacturer’s protocol using FuGENE HD (Promega). NanoLuc fusion DNA was diluted into Transfection Carrier DNA (Promega) in Opti-MEM at a ratio of 1:9 (mass/mass), and FuGENE HD was added at a ratio of 1:3 (μg DNA:μL lipid). For experiments using WDR77, untagged WDR77 DNA (Promega) was used in place of Carrier DNA. Formed complexes were combined with cells resuspended to a density of 2 × 10^5 cells/mL in Opti-MEM + 1% FBS at a ratio of 1:20 (vol:vol). Cells were plated into a flask and incubated at 37 °C in a humidified 5% CO2 atmosphere for 18–24 h, before being lifted and seeded into 96-well non-binding surface-treated plates (Corning). Cells were seeded at a density of 2 × 10^5 cells/mL in Opti-MEM + 1% FBS in 100 μL (96-well). The BRET probe CBH-002 was prepared first as a 100× stock in 100% DMSO (Sigma) and then diluted to a 20× stock in NanoBRET Tracer Dilution buffer (Promega). Test compounds were prepared as 1000× stocks in 100% DMSO and diluted to 10× stocks in Opti-MEM to prepare working stocks. […] NanoBRET Complete 3x Substrate was prepared by combining Nano-Glo Substrate and Extracellular NanoLuc Inhibitor in Opti-MEM, according to the manufacturer’s protocol (Promega). NanoBRET Complete 3× Substrate was added to cells and plates were measured on either a PheraSTAR FSX equipped with 450 nm (donor) and 610 nm (acceptor) filters, or a GloMAX Discover equipped with 450/8 nm BP (donor) and 600 nm LP (acceptor) filters, using a 0.3 s integration time.
EC50 values were obtained by fitting the BRET probe and compound affinity curves to a sigmoidal four-parameter fit model in Graphpad Prism:1 Y=Ymin+Ymax−Ymin/1+10^LogEC50−Xh where h is the Hill Slope.

NLuc-PRMT5 [1] = molecular target: T2, NLuc-PRMT5 (Homo sapiens, UniProt O14744); test: SAM titration against CBH-002 in HEK293 cell lysate (linear range of SAM detection); assay type: binding; parameters: host or cells: HEK293 (live cells; digitonin lysate for the SAM titration); conditions: for EC50: Figure S3B; for BRET signal, CBH-002 titration (Figure S3A): Log[CBH-002]
Method: To determine the linear range of SAM detection, HEK293 cells expressing NLuc-PRMT5 were lysed by addition of a 10x digitonin solution (Sigma), 500 µg/mL in Opti-MEM) and treated with a 1 mM, 4-fold, 11 pt dose-response series of SAM (Sigma) and a 1 µM 2-fold, 8 pt dose-response series of CBH-002. Lysate was incubated at RT for 30 min prior to reading BRET. Data was normalized using Eq. (2) above, with BRETMIN = BRET signal at lowest [CBH-002] + 0 µM SAM, and BRETMAX = BRET signal at 1 µM CBH-002 + 1 mM SAM. Data were fit using Eq. (3), and CBH-002 EC50 was plotted against [SAM] to determine the linear range of detection.

NLuc-PRMT5 [2] = molecular target: T2, NLuc-PRMT5; test: BRET probe CBH-002 binding kinetics (association, dissociation by GSK3326595) in live HEK293 cells; assay type: cell-based; parameters: host or cells: HEK293 (live cells; digitonin lysate for the SAM titration); Tracer association (Figure S3C): unit not given here
Method: To determine BRET probe binding kinetics, live HEK293 cells were treated with 30 nM CBH-002 and BRET measurements were read in 3 min intervals for 2 h at room temperature.

T1 sequence (O14744 whole entry, the tested form may be a part): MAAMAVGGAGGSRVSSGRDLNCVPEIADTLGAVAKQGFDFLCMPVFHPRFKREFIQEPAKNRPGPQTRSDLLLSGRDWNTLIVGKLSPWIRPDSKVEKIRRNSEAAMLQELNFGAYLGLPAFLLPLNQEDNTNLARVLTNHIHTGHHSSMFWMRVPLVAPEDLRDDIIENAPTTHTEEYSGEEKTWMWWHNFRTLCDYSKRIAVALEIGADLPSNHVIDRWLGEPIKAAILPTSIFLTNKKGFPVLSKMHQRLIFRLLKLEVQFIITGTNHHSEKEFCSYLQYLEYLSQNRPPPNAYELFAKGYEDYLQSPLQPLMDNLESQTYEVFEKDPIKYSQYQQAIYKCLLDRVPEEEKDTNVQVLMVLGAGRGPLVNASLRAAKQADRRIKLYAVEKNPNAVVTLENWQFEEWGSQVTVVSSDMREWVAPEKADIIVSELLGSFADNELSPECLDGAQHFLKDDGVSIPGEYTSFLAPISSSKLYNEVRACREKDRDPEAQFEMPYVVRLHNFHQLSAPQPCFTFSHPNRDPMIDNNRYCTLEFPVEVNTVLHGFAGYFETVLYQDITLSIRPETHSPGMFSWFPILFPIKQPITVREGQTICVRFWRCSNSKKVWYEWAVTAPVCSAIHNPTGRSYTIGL
T2 sequence (O14744 whole entry): as the sequence (O14744 whole entry, the tested form may be a part) above
T2 sequence (Q9BQA1 whole entry partner): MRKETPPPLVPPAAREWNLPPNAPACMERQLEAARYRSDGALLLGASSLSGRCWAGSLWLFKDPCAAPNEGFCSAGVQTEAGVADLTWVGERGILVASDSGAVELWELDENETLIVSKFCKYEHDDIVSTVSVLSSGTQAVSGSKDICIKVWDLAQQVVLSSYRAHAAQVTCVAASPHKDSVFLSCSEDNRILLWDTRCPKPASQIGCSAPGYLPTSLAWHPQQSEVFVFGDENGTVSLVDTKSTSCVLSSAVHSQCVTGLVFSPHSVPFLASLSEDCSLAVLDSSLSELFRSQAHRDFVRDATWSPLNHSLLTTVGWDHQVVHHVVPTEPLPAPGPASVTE

- BRET, CBH-002 + DMSO (PRMT5-NL; uM -1.03342): 12.5404 and 13.4407 and 13.3166
- BRET, CBH-002 + GSK3326595 (PRMT5-NL; uM -1.03342): 8.441 and 8.865 and 8.461
- BRET, CBH-002 + DMSO (PRMT5-NL; uM -1.51055): 10.7353 and 11.0633 and 11.2052
- BRET, CBH-002 + GSK3326595 (PRMT5-NL; uM -1.51055): 5.349 and 5.866 and 6.032
- BRET, CBH-002 + DMSO (PRMT5-NL; uM -1.98767): 8.8779 and 8.604 and 8.921
- BRET, CBH-002 + GSK3326595 (PRMT5-NL; uM -1.98767): 5.328 and 5.307 and 5.5055
- BRET, CBH-002 + DMSO (PRMT5-NL; uM -2.46479): 7.2471 and 8.258 and 8.573
- BRET, CBH-002 + GSK3326595 (PRMT5-NL; uM -2.46479): 3.609 and 3.848 and 3.767
- BRET, CBH-002 + DMSO (PRMT5-NL; uM -2.94191): 6.802 and 7.308 and 6.803
- BRET, CBH-002 + GSK3326595 (PRMT5-NL; uM -2.94191): 2.864 and 2.956 and 2.6211
- BRET, CBH-002 + DMSO (PRMT5-NL; uM -3.41903): 6.051 and 5.88 and 6.095
- BRET, CBH-002 + GSK3326595 (PRMT5-NL; uM -3.41903): 2.538 and 2.522 and 2.796
- BRET, CBH-002 + DMSO (PRMT5-NL; uM -3.89615): 5.285 and 4.8415 and 5.242
- BRET, CBH-002 + GSK3326595 (PRMT5-NL; uM -3.89615): 2.512 and 2.541 and 2.599
- EC50 (NLuc-PRMT5 [1]; CBH-002 EC50 at [SAM] 0 uM): 1070 nM
- EC50 (NLuc-PRMT5 [1]; CBH-002 EC50 at [SAM] 0.001 uM): 1220 nM
- EC50 (NLuc-PRMT5 [1]; CBH-002 EC50 at [SAM] 0.004 uM): 722 nM
- EC50 (NLuc-PRMT5 [1]; CBH-002 EC50 at [SAM] 0.06 uM): 232 nM
- EC50 (NLuc-PRMT5 [1]; CBH-002 EC50 at [SAM] 250 uM): 10 nM
- EC50 (NLuc-PRMT5 [1]; CBH-002 EC50 at [SAM] 1000 uM): 10 nM
- BRET signal, CBH-002 titration (Figure S3A) (NLuc-PRMT5 [1]; uM 0.00, [SAM] 0 uM): 59.75 and 46.60 and 39.12
- BRET signal, CBH-002 titration (Figure S3A) (NLuc-PRMT5 [1]; uM 0.00, [SAM] 0.001 uM): 52.48 and 47.57 and 38.98
- BRET signal, CBH-002 titration (Figure S3A) (NLuc-PRMT5 [1]; uM 0.00, [SAM] 0.004 uM): 78.50 and 49.28 and 41.20
- BRET signal, CBH-002 titration (Figure S3A) (NLuc-PRMT5 [1]; uM 0.00, [SAM] 0.06 uM): 102.12 and 63.12 and 56.12
- BRET signal, CBH-002 titration (Figure S3A) (NLuc-PRMT5 [1]; uM 0.00, [SAM] 250 uM): 116.71 and 100.65 and 98.69
- BRET signal, CBH-002 titration (Figure S3A) (NLuc-PRMT5 [1]; uM 0.00, [SAM] 1000 uM): 100.00
- BRET signal, CBH-002 titration (Figure S3A) (NLuc-PRMT5 [1]; uM -0.60, [SAM] 0 uM): 35.92 and 26.69 and 20.78
- BRET signal, CBH-002 titration (Figure S3A) (NLuc-PRMT5 [1]; uM -0.60, [SAM] 0.001 uM): 38.65 and 26.89 and 21.61
- BRET signal, CBH-002 titration (Figure S3A) (NLuc-PRMT5 [1]; uM -0.60, [SAM] 0.004 uM): 42.58 and 27.46 and 22.13
- BRET signal, CBH-002 titration (Figure S3A) (NLuc-PRMT5 [1]; uM -0.60, [SAM] 250 uM): 110.40 and 94.49 and 89.50
- BRET signal, CBH-002 titration (Figure S3A) (NLuc-PRMT5 [1]; uM -0.60, [SAM] 1000 uM): 106.63 and 91.94 and 90.40
- BRET signal, CBH-002 titration (Figure S3A) (NLuc-PRMT5 [1]; uM -1.20, [SAM] 0 uM): 18.29 and 13.11 and 9.32
- BRET signal, CBH-002 titration (Figure S3A) (NLuc-PRMT5 [1]; uM -1.20, [SAM] 250 uM): 100.06 and 80.70 and 74.62
- BRET signal, CBH-002 titration (Figure S3A) (NLuc-PRMT5 [1]; uM -1.20, [SAM] 1000 uM): 101.04 and 80.00 and 77.33
- BRET signal, CBH-002 titration (Figure S3A) (NLuc-PRMT5 [1]; uM -1.81, [SAM] 250 uM): 80.32 and 48.77 and 48.32
- BRET signal, CBH-002 titration (Figure S3A) (NLuc-PRMT5 [1]; uM -1.81, [SAM] 1000 uM): 90.24 and 46.55 and 49.90
- Tracer association (Figure S3C) (NLuc-PRMT5 [2]; Time (min) -27): 84.20 and 89.90 and 88.10 and 83.20
- Tracer association (Figure S3C) (NLuc-PRMT5 [2]; Time (min) -30): 82.70 and 89.80 and 85.50 and 82.10
- Tracer association (Figure S3C) (NLuc-PRMT5 [2]; Time (min) -33): 82.30 and 86.20 and 84.70 and 81.40
- Tracer association (Figure S3C) (NLuc-PRMT5 [2]; Time (min) -36): 79.10 and 84.40 and 82.30 and 79.90
- Tracer association (Figure S3C) (NLuc-PRMT5 [2]; Time (min) -39): 78.00 and 83.20 and 80.40 and 77.80
- Tracer association (Figure S3C) (NLuc-PRMT5 [2]; Time (min) -42): 74.70 and 81.80 and 78.20 and 76.90
- Tracer association (Figure S3C) (NLuc-PRMT5 [2]; Time (min) -45): 72.40 and 79.70 and 77.50 and 73.60
- Tracer association (Figure S3C) (NLuc-PRMT5 [2]; Time (min) -48): 71.50 and 77.50 and 73.90 and 72.30
- Tracer association (Figure S3C) (NLuc-PRMT5 [2]; Time (min) -51): 70.80 and 74.30 and 71.70 and 69.80
- Tracer association (Figure S3C) (NLuc-PRMT5 [2]; Time (min) -54): 67.60 and 72.60 and 69.10 and 66.30
- Tracer association (Figure S3C) (NLuc-PRMT5 [2]; Time (min) -57): 64.20 and 69.60 and 66.90 and 64.40
- Tracer association (Figure S3C) (NLuc-PRMT5 [2]; Time (min) -60): 62.40 and 67.20 and 64.20 and 62.00
- Tracer association (Figure S3C) (NLuc-PRMT5 [2]; Time (min) -63): 58.70 and 64.40 and 60.70 and 59.40
- Tracer association (Figure S3C) (NLuc-PRMT5 [2]; Time (min) -66): 56.10 and 60.10 and 57.50
- Tracer association (Figure S3C) (NLuc-PRMT5 [2]; Time (min) -69): 53.40 and 56.10 and 54.60 and 53.80
- Tracer association (Figure S3C) (NLuc-PRMT5 [2]; Time (min) -72): 50.10 and 53.80 and 51.80
- Tracer association (Figure S3C) (NLuc-PRMT5 [2]; Time (min) -75): 46.70 and 49.90 and 47.90 and 46.40
- Tracer association (Figure S3C) (NLuc-PRMT5 [2]; Time (min) -78): 43.20 and 46.00 and 44.30 and 42.50
- Tracer association (Figure S3C) (NLuc-PRMT5 [2]; Time (min) -81): 39.30 and 42.30 and 40.80 and 39.10
- Tracer association (Figure S3C) (NLuc-PRMT5 [2]; Time (min) -84): 36.10 and 38.40 and 35.80
- Tracer association (Figure S3C) (NLuc-PRMT5 [2]; Time (min) -87): 31.70 and 33.50 and 32.20 and 31.50
- Tracer association (Figure S3C) (NLuc-PRMT5 [2]; Time (min) -90): 27.90 and 29.40 and 28.10 and 27.70
- Tracer association (Figure S3C) (NLuc-PRMT5 [2]; Time (min) -93): 22.90 and 24.80 and 24.00 and 23.50
- Tracer association (Figure S3C) (NLuc-PRMT5 [2]; Time (min) -96): 18.60 and 20.70 and 19.20
- Tracer association (Figure S3C) (NLuc-PRMT5 [2]; Time (min) -99): 13.20 and 15.60 and 14.50
- Tracer association (Figure S3C) (NLuc-PRMT5 [2]; Time (min) -102): 7.40 and 9.50 and 8.80 and 9.10
- Time for BRET biosensor to reach equilibrium (NLuc-PRMT5 [2]; live cells, room temperature, 30 nM CBH-002): ~ 2 h
SMILES: O=C(CCc1ccc2n1[B-](F)(F)[N+]1=C(c3ccc[nH]3)C=CC1=C2)NCCCCC(=O)N1CCC(Nc2cc(C(=O)NC[C@H](O)CN3CCc4ccccc4C3)ncn2)CC1 [CBH-002]
